Data on seven molecules can be found in patent publication US10131652B2, “Pyrimidinyloxy benzene derivatives as herbicides” (E. I. DU PONT DE NEMOURS AND COMPANY, priority 2014, dated 2018).

Type in all cases: in vivo
Test [1] deals with Horseweed. Put plainly: Test F postemergence plant response. The conditions noted are these: scale 0 to 100.
Test [2] has as its system small-flower umbrella sedge (Cyperus difformis). Description: Test D flooded paddy test plant response. The conditions noted are these: Flood (flooded paddy test), visual rating on scale 0 to 100 (0 no effect, 100 complete control), 13 to 15 days. The source says: (§1) Plant species in the flooded paddy test consisted of rice (Oryza sativa), small-flower umbrella sedge (Cyperus difformis), ducksalad (Heteranthera limosa), and bamyardgrass (Echinochloa crus-galli) grown to the 2-leaf stage for testing. At time of treatment, test pots were flooded to 3 cm above the soil surface, treated by application of test compounds directly to the paddy water, and then maintained at that water depth for the duration of the test. Treated plants and controls were maintained in a greenhouse for 13 to 15 days, after which time all species were compared to controls and visually evaluated. Plant response ratings, summarized in Table D, are based on a scale of 0 to 100 where 0 is no effect and 100 is complete control. A dash (-) response means no test result.

Test [3] relates to ducksalad (Heteranthera limosa). Put plainly: Test D flooded paddy test plant response. The conditions noted are these: Flood (flooded paddy test), visual rating on scale 0 to 100 (0 no effect, 100 complete control), 13 to 15 days.
Text: as §1

The test system of test [4] is rice (Oryza sativa). Put plainly: Test D flooded paddy test plant response. The conditions noted are these: Flood (flooded paddy test), visual rating on scale 0 to 100 (0 no effect, 100 complete control), 13 to 15 days.
Text: as §1

In test [5] the test system is barnyardgrass (Echinochloa crus-galli). Put plainly: Test D flooded paddy test plant response. The conditions noted are these: Flood (flooded paddy test), visual rating on scale 0 to 100 (0 no effect, 100 complete control), 13 to 15 days.
Text: as §1

Test [6] relates to downy bromegrass (Bromus tectorum). Description: Test E pre-/postemergence plant response. The conditions noted are these: scale 0 to 100, read-out: Plant response rating, Bromegrass, Downy; for pest or weed control at 16 g/ha: 16 g ai/ha; for pest or weed control at 31 g/ha: 31 g ai/ha; for pest or weed control at 62 g/ha: 62 g ai/ha; for pest or weed control at 125 g/ha: 125 g ai/ha. In a few lines: (§2)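 Pre-emergence: seeds sown in silt loam soil and sprayed with test chemicals in a non-phytotoxic solvent/surfactant mix. Post-emergence: plants at 2–18 cm (1- to 4-leaf stage) in peat/vermiculite medium treated with the same formulation. Visual rating versus controls after 7–21 days, 0 (no effect) to 100 (complete control).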

The subject of test [7] is deadnettle (henbit deadnettle, Lamium amplexicaule). Put plainly: Test E pre-/postemergence plant response. The conditions noted are these: scale 0 to 100, read-out: Plant response rating, Deadnettle; for pest or weed control at 16 g/ha: 16 g ai/ha; for pest or weed control at 31 g/ha: 31 g ai/ha; for pest or weed control at 62 g/ha: 62 g ai/ha; for pest or weed control at 125 g/ha: 125 g ai/ha. Put shortly:
as §2

Like-named read-outs stand apart in the source and are kept apart here.

As to `FC(F)c1cc(-c2c(Cl)cccc2Oc2ncc(Cl)cn2)no1` [Compound 179], the “Plant response rating, Horseweed” value in test [1] (16 g ai/ha Postemergence) came out at 0; in test [1] (31 g ai/ha Postemergence), 0; in test [1] (62 g ai/ha Postemergence), 10; in test [1] (125 g ai/ha Postemergence) it was 10.

Turning to `Fc1ccc(Oc2ncc(Cl)cn2)c(-c2cc(C(F)(Cl)Cl)on2)c1` [Compound 221], the “Plant response rating, Horseweed” value in test [1] (16 g ai/ha Postemergence) amounted to 0; in test [1] (31 g ai/ha Postemergence) it was 5; in test [1] (62 g ai/ha Postemergence), 10; in test [1] (125 g ai/ha Postemergence), 30. Besides, the “Plant response rating, Sedge, Umbrella” value in test [2] (62 g ai/ha) came to 80; in test [2] (250 g ai/ha), 95. For the same molecule, the “Plant response rating, Ducksalad” value in test [3] (62 g ai/ha) came out at 80; in test [3] (250 g ai/ha), 90. Also, the “Plant response rating, Rice” value in test [4] (62 g ai/ha) worked out at 15; in test [4] (250 g ai/ha), 40. For the same molecule, the figures for the “Plant response rating, Barnyardgrass” value in test [5] (62 g ai/ha) and in test [5] (250 g ai/ha) were 40 and 60, respectively.

Take `Fc1cccc(Oc2ncc(Cl)cn2)c1-c1cc(C(F)F)no1` [Compound 144, 5-chloro-2-[2-[3-(difluoromethyl)-5-isoxazolyl]-3-fluorophenoxy]pyrimidine]: the “Plant response rating, Horseweed” value is reported as 0 in test [1] (16 g ai/ha Postemergence), 0 in test [1] (31 g ai/ha Postemergence), 10 in test [1] (62 g ai/ha Postemergence) and 25 in test [1] (125 g ai/ha Postemergence). In addition, the “Plant response rating, Sedge, Umbrella” value in test [2] (31 g ai/ha) turned out to be 65; in test [2] (62 g ai/ha), 80; in test [2] (125 g ai/ha) it was 95; in test [2] (250 g ai/ha), 95. Also, the “Plant response rating, Ducksalad” value in test [3] (31 g ai/ha) stood at 75; in test [3] (62 g ai/ha), 85; in test [3] (125 g ai/ha) it was 90; in test [3] (250 g ai/ha), 100. In addition, the “Plant response rating, Rice” value in test [4] (31 g ai/ha) came to 0; in test [4] (62 g ai/ha) it was 15; in test [4] (125 g ai/ha), 25; in test [4] (250 g ai/ha), 40. In addition, the “Plant response rating, Barnyardgrass” value in test [5] (31 g ai/ha) worked out at 0; in test [5] (62 g ai/ha), 0; in test [5] (125 g ai/ha), 15; in test [5] (250 g ai/ha), 35. Moreover, the pest or weed control at 16 g/ha in test [6] (post-emergence, Postemergence) worked out at 25%; in test [6] (pre-emergence, Preemergence), 10%; in test [7] (pre-emergence, Preemergence) it was 90%. The pest or weed control at 31 g/ha in test [6] (post-emergence, Postemergence) stood at 35%; in test [6] (pre-emergence, Preemergence), 10%; in test [7] (pre-emergence, Preemergence) it was 100%. Besides, the pest or weed control at 62 g/ha in test [6] (post-emergence, Postemergence) was determined as 40%; in test [6] (pre-emergence, Preemergence) it was 35%; in test [7] (pre-emergence, Preemergence), 100%. Further, the pest or weed control at 125 g/ha was found to be 75% in test [6] (post-emergence, Postemergence); 55% in test [6] (pre-emergence, Preemergence); 100% in test [7] (pre-emergence, Preemergence).

Take `Fc1ccc(Oc2ncc(Cl)cn2)c(-c2cc(C(F)F)on2)c1Cl` [Compound 96]: the “Plant response rating, Horseweed” value in test [1] (16 g ai/ha Postemergence) came out at 0; in test [1] (31 g ai/ha Postemergence), 0; in test [1] (62 g ai/ha Postemergence), 0; in test [1] (125 g ai/ha Postemergence), 10.

On to `CC(F)(F)c1cc(-c2ccccc2Oc2ncc(Br)cn2)no1` [Compound 149], for which the “Plant response rating, Horseweed” value in test [1] (16 g ai/ha Postemergence) came out at 0; in test [1] (31 g ai/ha Postemergence), 20; in test [1] (62 g ai/ha Postemergence) it was 10; in test [1] (125 g ai/ha Postemergence), 20.

With `FC(F)c1cc(-c2ccccc2Oc2ncc(Br)cn2)on1` [Compound 212], the “Plant response rating, Horseweed” value in test [1] (16 g ai/ha Postemergence) amounted to 0; in test [1] (31 g ai/ha Postemergence) it was 0; in test [1] (62 g ai/ha Postemergence) it was 15; in test [1] (125 g ai/ha Postemergence), 10.

Consider `Fc1cccc(Oc2ncc(Br)cn2)c1-c1cc(C(F)F)no1` [Compound 145, 5-bromo-2-[2-[3-(difluoromethyl)-5-isoxazolyl]-3-fluorophenoxy]pyrimidine], for which the “Plant response rating, Horseweed” value in test [1] (16 g ai/ha Postemergence) is given as 0; in test [1] (31 g ai/ha Postemergence), 20; in test [1] (62 g ai/ha Postemergence), 20; in test [1] (125 g ai/ha Postemergence) it was 40. The “Plant response rating, Sedge, Umbrella” value in test [2] (31 g ai/ha) is 60; in test [2] (62 g ai/ha), 75; in test [2] (125 g ai/ha), 90; in test [2] (250 g ai/ha), 90. Besides, the “Plant response rating, Ducksalad” value was found to be 80 in test [3] (31 g ai/ha), 85 in test [3] (62 g ai/ha), 95 in test [3] (125 g ai/ha) and 95 in test [3] (250 g ai/ha). Besides, the “Plant response rating, Rice” value in test [4] (31 g ai/ha) came to 0; in test [4] (62 g ai/ha), 15; in test [4] (125 g ai/ha), 15; in test [4] (250 g ai/ha), 35. Moreover, the “Plant response rating, Barnyardgrass” value in test [5] (31 g ai/ha) came out at 0; in test [5] (62 g ai/ha), 0; in test [5] (125 g ai/ha) it was 0; in test [5] (250 g ai/ha), 35. The pest or weed control at 16 g/ha in test [6] (post-emergence, Postemergence) amounted to 25%; in test [6] (pre-emergence, Preemergence), 10%; in test [7] (post-emergence, Postemergence), 100%; in test [7] (pre-emergence, Preemergence), 0%. Besides, the pest or weed control at 31 g/ha in test [6] (post-emergence, Postemergence) came to 35%; in test [6] (pre-emergence, Preemergence) it was 20%; in test [7] (post-emergence, Postemergence) it was 100%; in test [7] (pre-emergence, Preemergence), 100%. In addition, the pest or weed control at 62 g/ha in test [6] (post-emergence, Postemergence) turned out to be 55%; in test [6] (pre-emergence, Preemergence), 35%; in test [7] (post-emergence, Postemergence), 100%; in test [7] (pre-emergence, Preemergence), 100%. Moreover, the pest or weed control at 125 g/ha was 55% in test [6] (post-emergence, Postemergence); 60% in test [6] (pre-emergence, Preemergence); 100% in test [7] (post-emergence, Postemergence); 100% in test [7] (pre-emergence, Preemergence).
